The test has as its system Mice. Description: analgesic activity by pressure stimulation method (tail base). The class given is in vivo. The note with it: percent of maximum possible effect, maximum stimulating pressure 100 mmHg; for MPE(%) 1 mg/kg s.c. (%): 1 mg/kg subcutaneous administration (skin in the backs); for MPE(%) 10 mg/kg p.o.(%): 10 mg/kg oral administration. As for the experimental part:
The analgesic activities of the peptide derivatives of the present invention were evaluated by pressure stimulation method. Mice were subjected to pressure stimulation at the bases of their tails at a rate of 10 mmHg/second. […] For the experiments, mice that were preliminarily determined to respond to a pressure of 40-50 mmHg were used. The maximum stimulating pressure was 100 mmHg. Analgesic activity was calculated as percent of maximum possible effect (% of MPE) according to the following equation: % of MPE =(Pt - Po)/(Pc - Po)× 100 [formula] wherein Po is the pain reaction threshold before the administration of a drug; Pt is the pain reaction threshold "t" minutes after the administration of the drug; and Pc is the maximum stimulating pressure. The results of analgesic activity obtained from subcutaneous administration (skin in the backs) and oral administration are shown in Table 1.

`CN(CCC(=O)O)C(=O)[C@H](Cc1ccccc1)NC(=O)[C@@H](CCNC(=N)N)NC(=O)[C@H](Cc1ccc(O)cc1)NC(=N)N` [Example 10, H2NC(NH)-Tyr-(R)-AGBA-Phe-MeβAla-OH·diacetate]: the “MPE(%) 1 mg/kg s.c. (%)” value worked out at 42.78% and the “MPE(%) 10 mg/kg p.o.(%)” value came out at 10.62%.
Turning to `CN(CCC(=O)O)C(=O)[C@H](Cc1ccccc1)NC(=O)[C@@H](CCCNC(=N)N)NC(=O)[C@H](Cc1ccc(O)c(O)c1)NC(=N)N` [Example 4, H2NC(NH)-DOPA-D-Arg-Phe-MeβAla-OH·diacetate], the “MPE(%) 1 mg/kg s.c. (%)” value came out at 70.85% and the “MPE(%) 10 mg/kg p.o.(%)” value was 18.11%.
On to `CN(CCC(=O)O)C(=O)[C@H](CCc1ccccc1)NC(=O)[C@@H](CCCNC(=N)N)NC(=O)[C@H](Cc1ccc(O)cc1)NC(=N)N` [Example 26, N-H2NC(NH)-Tyr-D-Arg-APBA-MeβAla-OH·diacetate], for which the “MPE(%) 1 mg/kg s.c. (%)” value worked out at 32.83% and the “MPE(%) 10 mg/kg p.o.(%)” value is given as 14.44%.
For `Cc1cc(O)cc(C)c1C[C@H](NC(=N)N)C(=O)N[C@H](CCCNC(=N)N)C(=O)N[C@@H](Cc1ccccc1)C(=O)N(C)CCC(=O)O` [Example 2, H2NC(NH)-DMT-D-Arg-Phe-MeβAla-OH·diacetate] the same measures were 93.47% and 22.78%.
As for `CN(CCC(=O)O)C(=O)[C@H](CC1CCCCC1)NC(=O)[C@@H](CCCNC(=N)N)NC(=O)[C@H](Cc1ccc(O)cc1)NC(=N)N` [Example 27, H2NC(NH)-Tyr-D-Arg-Cha-MeβAla-OH·diacetate], the “MPE(%) 1 mg/kg s.c. (%)” value is on record as 52.14% and the “MPE(%) 10 mg/kg p.o.(%)” value worked out at 33.15%.
For `CN(CCC(=O)O)C(=O)[C@H](Cc1ccc(O)cc1)NC(=O)[C@@H](CCCNC(=N)N)NC(=O)[C@H](Cc1ccc(O)cc1)NC(=N)N` [Example 25, H2NC(NH)-Tyr-D-Arg-Tyr-MeβAla-OH·diacetate] the same measures were 22.55% and 10.96%.
`CC(=N)NCCC[C@@H](NC(=O)[C@H](Cc1ccc(O)cc1)NC(=N)N)C(=O)N[C@@H](Cc1ccccc1)C(=O)N(C)CCC(=O)O` [Example 17, H2NC(NH)-Tyr-(R)-IEPE-Phe-MeβAla-OH·diacetate]: the “MPE(%) 1 mg/kg s.c. (%)” value turned out to be 100% and the “MPE(%) 10 mg/kg p.o.(%)” value turned out to be 88.34%.
For `CC(=N)NC[C@@H](NC(=O)[C@H](Cc1ccc(O)cc1)NC(=N)N)C(=O)N[C@@H](Cc1ccccc1)C(=O)N(C)CCC(=O)O` [Example 32, H2NC(NH)-Tyr-D-IEPR-Phe-MeβAla-OH·diacetate] the same measures were 66.61% and 52.72%.
For `CC(=N)N[C@@H](Cc1ccc(O)cc1)C(=O)N[C@H](CC[S+](C)[O-])C(=O)N[C@@H](Cc1ccccc1)C(=O)N(C)CCC(=O)O` (stereo partly drawn) [Example 31, H3C-C(NH)-Tyr-D-AMSB-Phe-MeβAla-OH·acetate] the same measures were 100% and 96.18%.
For the molecule `CC(=N)N[C@@H](Cc1ccc(O)cc1)C(=O)N[C@H](CCCCN)C(=O)N[C@@H](Cc1ccccc1)C(=O)N(C)CCC(=O)O` [Example 19, H3C-C(NH)-Tyr-D-Lys-Phe-MeβAla-OH·diacetate], the “MPE(%) 1 mg/kg s.c. (%)” value came to 87.11% and the “MPE(%) 10 mg/kg p.o.(%)” value turned out to be 82.29%.

The values above are taken from patent publication EP0850950A1, “PEPTIDE DERIVATIVES” (DAIICHI PHARMACEUTICAL CO., LTD., priority 1995, dated 1998).
